Activity calls are given as the source filed them. The calls are words filed in the database; no cut-off is given here.

Holding throughout (details): Homo sapiens
For assay [1], the system named is HUVEC. Description: Inhibition of cisplatin-induced TRPC1 phosphorylation in [32P] orthophosphate labeled HUVEC cells at 30 uM incubated for 15 mins in presence of cisplatin by Western blot analysis. Format: cell-based. (A western blot detects proteins with antibodies after separation by electrophoresis.)
Assay [2] has as its system HUVEC. Description: Downregulation of cisplatin-induced PKCalpha translocation in HUVEC cells at 30 uM incubated for 15 mins in presence of cisplatin and eNOS inhibitor, N(G)-nitro-L-arginine methyl ester by Western blot analysis. The class given is functional, cell-based.
Assay [3] concerns HUVEC. Description: Inhibition of cisplatin-induced TRPC1 phosphorylation in [32P] orthophosphate labeled HUVEC cells at 30 uM incubated for 15 mins in presence of cisplatin and eNOS inhibitor, N(G)-nitro-L-arginine methyl ester by Western blot analysis. The class given is cell-based.

On to `C=C1CC[C@@H]2[C@](C)(CO)[C@H](O)CC[C@@]2(C)[C@@H]1C/C=C1/C(=O)OC[C@H]1O` [ANDROGRAPHOLIDE], for which the inhibition result in the assay on HUVEC [1] was “Active”. Further, in the assay on HUVEC [2], the result was inactive. In addition, in the assay on HUVEC [3], the inhibition result is “inactive”.

The record behind these values is ChEMBL document CHEMBL5223073, “Andrographolide suppresses cisplatin-induced endothelial hyperpermeability through activation of PI3K/Akt and eNOS -derived nitric oxide” (Bioorg Med Chem, 2020).
